Data as given in patent publication US12084472B2 (Ardelyx, Inc., priority 2015, dated 2024).

Molecular target: T1, human TGR5 (Homo sapiens, UniProt Q8TDU6)
T1 construct: expressed in transfected cells; host or cells: HEK293
T1 sequence (Q8TDU6 1-330): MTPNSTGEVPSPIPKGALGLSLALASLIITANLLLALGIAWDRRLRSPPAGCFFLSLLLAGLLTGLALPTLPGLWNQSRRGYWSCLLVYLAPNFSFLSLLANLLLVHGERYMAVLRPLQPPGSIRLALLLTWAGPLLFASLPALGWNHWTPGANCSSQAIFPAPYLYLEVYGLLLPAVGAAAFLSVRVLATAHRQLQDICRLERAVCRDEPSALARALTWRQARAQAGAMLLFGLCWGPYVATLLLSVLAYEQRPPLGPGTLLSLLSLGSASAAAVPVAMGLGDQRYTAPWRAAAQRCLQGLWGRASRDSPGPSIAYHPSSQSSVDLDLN
Test: Cell-based TGR5 assay (cAMP generation, HTRF)
Conditions: HEK293 cells stably transfected with human TGR5; cAMP by HTRF; 30 minutes at 37° C.; read-out: pEC50 Human TGR5 (converted)
Method in brief: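 First, compounds in 3-fold serial dilution were placed in HBSS with 10 mM HEPES pH 7.4 and 0.5 mM IBMX. Next, human TGR5-expressing HEK293 cells were added and incubated 30 min at 37° C. Finally, cAMP was detected by HTRF and pEC50 derived by logistic fitting.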

Q: With `CCOC(=O)NCCCN(CCCCSc1ccc(Cl)c(CNC2(c3cnccc3-c3ccccc3OC3CC3)CC2)c1)C(=O)[C@@H](O)[C@@H](O)[C@H](O)[C@@H](O)CO` [Compound I-574, ethyl N-{3-[(2S,3S,4R,5S)-N-[4-({4-chloro-3-[({1-[4-(2-cyclopropoxyphenyl)pyridin-3-yl]cyclopropyl}amino)methyl]phenyl}sulfanyl)butyl]-2,3,4,5,6-pentahydroxyhexanamido]propyl}carbamate] as the molecule, how does the EC50 read?
A: < 100 nM

Q: For `O=C(/C=C/C1CN(S(=O)(=O)c2ccc(Cl)c(COC3(c4cnccc4-c4ccccc4OC4CC4)CC3)c2)C1)NC[C@H](O)[C@@H](O)[C@H](O)[C@H](O)CO` [Compound I-446, (2E)-3-{1-[4-chloro-3-({1-[4-(2-cyclopropoxyphenyl)pyridin-3-yl]cyclopropoxy}methyl)benzenesulfonyl]azetidin-3-yl}-N-[(2S,3R,4R,5R)-2,3,4,5,6-pentahydroxyhexyl]prop-2-enamide], which EC50 is on record?
A: < 100 nM

Q: With `CC(C)Oc1ccccc1-c1ccncc1C1(NCc2cc(Cl)ccc2Cl)CC1` [Compound I-2, N-[(2,5-dichlorophenyl)methyl]-1-{4-[2-(propan-2-yloxy)phenyl]pyridin-3-yl}cyclopropan-1-amine] as the molecule, how does the EC50 read?
A: < 100 nM

Q: Which EC50 does the source give for `Clc1ccc(Cl)c(CNC2(c3cnccc3-c3ccccc3Cl)CC2)c1` [Compound I-16, 1-[4-(2-chlorophenyl)pyridin-3-yl]-N-[(2,5-dichlorophenyl)methyl]cyclopropan-1-amine] here?
A: 1260 to 10000 nM

Q: `Cc1ccc(SCCCCN(C(=O)[C@@H](O)[C@@H](O)[C@H](O)[C@@H](O)CO)C2CCOCC2)cc1CNC1(c2cnccc2-c2ccccc2OC2CC2)CC1` [Compound I-560, (2S,3S,4R,5S)-N-[4-({3-[({1-[4-(2-cyclopropoxyphenyl)pyridin-3-yl]cyclopropyl}amino)methyl]-4-methylphenyl}sulfanyl)butyl]-2,3,4,5,6-pentahydroxy-N-(oxan-4-yl)hexanamide] was tested. Which EC50 did it give?
A: 126 to 1000 nM

Q: For `CN(C)C(=O)CCN(C[C@H](O)[C@@H](O)[C@H](O)[C@H](O)CO)C(=O)CCCSc1ccc(Cl)c(COC2(c3cnccc3-c3ccccc3OC3CC3)CC2)c1` [Compound I-671, 4-{[4-chloro-3-({1-[4-(2-cyclopropoxyphenyl)pyridin-3-yl]cyclopropoxy}methyl)phenyl]sulfanyl}-N-[2-(dimethylcarbamoyl)ethyl]-N-[(2S,3R,4R,5R)-2,3,4,5,6-pentahydroxyhexyl]butanamide], which EC50 is on record?
A: 126 to 1000 nM

Q: With `CCOC(=O)NCCN(CCCSc1ccc(Cl)c(CNC2(c3cnccc3-c3ccccc3OC3CC3)CC2)c1)C(=O)[C@@H](O)[C@@H](O)[C@H](O)[C@@H](O)CO` [Compound I-587, ethyl N-{2-[(2S,3S,4R,5S)-N-[3-({4-chloro-3-[({1-[4-(2-cyclopropoxyphenyl)pyridin-3-yl]cyclopropyl}amino)methyl]phenyl}sulfanyl)propyl]-2,3,4,5,6-pentahydroxyhexanamido]ethyl}carbamate] as the molecule, how does the EC50 read?
A: 126 to 1000 nM

Q: For `C[C@@H](CCCC(=O)NC[C@H](O)[C@@H](O)[C@H](O)[C@H](O)CO)c1ccc(Cl)c(CNC2(c3cnccc3-c3ccccc3OC3CC3)CC2)c1` (single isomer, unassigned) [Compound I-314], which EC50 is on record?
A: < 100 nM

Q: For `O=C([C@@H](O)[C@@H](O)[C@H](O)[C@@H](O)CO)N(CCCCO)CCCCCSc1ccc(Cl)c(COC2(c3cnccc3-c3ccccc3OC3CC3)CC2)c1` [Compound I-605, (2S,3S,4R,5S)-N-(5-{[4-chloro-3-({1-[4-(2-cyclopropoxyphenyl)pyridin-3-yl]cyclopropoxy}methyl)phenyl]sulfanyl}pentyl)-2,3,4,5,6-pentahydroxy-N-(4-hydroxybutyl)hexanamide], which EC50 is on record?
A: < 100 nM

Q: How did the EC50 turn out when `CN(C)CC(=O)N(CCCCc1cc(Cl)c(COC2(c3cnccc3-c3ccccc3OC3CC3)CC2)cc1Cl)C[C@H](O)[C@@H](O)[C@H](O)[C@H](O)CO` [Compound I-203, N-{4-[2,5-dichloro-4-({1-[4-(2-cyclopropoxyphenyl)pyridin-3-yl]cyclopropoxy}methyl)phenyl]butyl}-2-(dimethylamino)-N-[(2S,3R,4R,5R)-2,3,4,5,6-pentahydroxyhexyl]acetamide] was run?
A: < 100 nM

Q: With `C[C@@H](CCCCNC(=O)NC[C@H](O)[C@@H](O)[C@H](O)[C@H](O)CO)c1ccc(Cl)c(COC2(c3cnccc3-c3ccccc3OC3CC3)CC2)c1` (single isomer, unassigned) [Compound I-274] as the molecule, how does the EC50 read?
A: < 100 nM

Q: Which EC50 does the source give for `O=C(NC[C@H](O)[C@@H](O)[C@H](O)[C@H](O)CO)C1CCC(NS(=O)(=O)c2ccc(Cl)c(COC3(c4cnccc4-c4ccccc4OC4CC4)CC3)c2)C1` (stereo partly drawn) [Compound I-439, 3-[4-chloro-3-({1-[4-(2-cyclopropoxyphenyl)pyridin-3-yl]cyclopropoxy}methyl)benzenesulfonamido]-N-[(2S,3R,4R,5R)-2,3,4,5,6-pentahydroxyhexyl]cyclopentane-1-carboxamide] here?
A: < 100 nM

Q: Which EC50 does the source give for `CSc1ccccc1-c1ccncc1C1(NCc2cc(Cl)ccc2Cl)CC1` [Compound I-7, N-[(2,5-dichlorophenyl)methyl]-1-{4-[2-(methylsulfanyl)phenyl]pyridin-3-yl}cyclopropan-1-amine] here?
A: 126 to 1000 nM

Q: How did the EC50 turn out when `Clc1ccc(Cl)c(CNC2(c3cnccc3-c3ccccc3C3CC3)CC2)c1` [Compound I-10, 1-[4-(2-cyclopropylphenyl)pyridin-3-yl]-N-[(2,5-dichlorophenyl)methyl]cyclopropan-1-amine] was run?
A: 126 to 1000 nM

Q: Which EC50 does the source give for `CCc1ccccc1-c1ccncc1C1(NCc2cc(Cl)ccc2Cl)CC1` [Compound I-9, N-[(2,5-dichlorophenyl)methyl]-1-[4-(2-ethylphenyl)pyridin-3-yl]cyclopropan-1-amine] here?
A: 126 to 1000 nM

Q: How did the EC50 turn out when `Cc1cc(COC2(c3cnccc3-c3ccccc3OC3COC3)CC2)c(Cl)cc1CCCCNC(=O)N(C)C[C@H](O)[C@@H](O)[C@H](O)[C@H](O)CO` [Compound I-191, 1-(4-{5-chloro-2-methyl-4-[(1-{4-[2-(oxetan-3-yloxy)phenyl]pyridin-3-yl}cyclopropoxy)methyl]phenyl}butyl)-3-methyl-3-[(2S,3R,4R,5R)-2,3,4,5,6-pentahydroxyhexyl]urea] was run?
A: < 100 nM

Q: With `O=C(NCCCC(CO)c1ccc(Cl)c(CNC2(c3cnccc3-c3ccccc3OC3CC3)CC2)c1)[C@@H](O)[C@@H](O)[C@H](O)[C@@H](O)CO` (stereo partly drawn) [Compound I-380, (2S,3S,4R,5S)-N-(4-[4-chloro-3-[([1-[4-(2-cyclopropoxyphenyl)pyridin-3-yl]cyclopropyl]amino)methyl]phenyl]-5-hydroxypentyl)-2,3,4,5,6-pentahydroxyhexanamide] as the molecule, how does the EC50 read?
A: 126 to 1000 nM

Q: How did the EC50 turn out when `CN(C[C@H](O)[C@@H](O)[C@H](O)[C@H](O)CO)C(=O)CCCS(=O)(=O)c1ccc(Cl)c(CNC2(c3cnccc3-c3ccccc3OC3CC3)CC2)c1` [Compound I-646, 4-{4-chloro-3-[({1-[4-(2-cyclopropoxyphenyl)pyridin-3-yl]cyclopropyl}amino)methyl]benzenesulfonyl}-N-methyl-N-[(2S,3R,4R,5R)-2,3,4,5,6-pentahydroxyhexyl]butanamide] was run?
A: < 100 nM

Q: Which EC50 does the source give for `CC(CCCN(CCCCNS(C)(=O)=O)C(=O)[C@@H](O)[C@@H](O)[C@H](O)[C@@H](O)CO)c1ccc(Cl)c(CNC2(c3cnccc3-c3ccccc3OC3CC3)CC2)c1` (stereo partly drawn) [Compound I-297, (2S,3S,4R,5S)-N-(4-{4-chloro-3-[({1-[4-(2-cyclopropoxyphenyl)pyridin-3-yl]cyclopropyl}amino)methyl]phenyl}pentyl)-2,3,4,5,6-pentahydroxy-N-(4-methanesulfonamidobutyl) hexanamide] here?
A: < 100 nM

Q: With `CC(CCCN(CCN1CCS(=O)(=O)CC1)C(=O)[C@@H](O)[C@@H](O)[C@H](O)[C@@H](O)CO)c1ccc(Cl)c(CNC2(c3cnccc3-c3ccccc3OC3CC3)CC2)c1` (stereo partly drawn) [Compound I-298, (2S,3S,4R,5S)-N-(4-{4-chloro-3-[({1-[4-(2-cyclopropoxyphenyl)pyridin-3-yl]cyclopropyl}amino)methyl]phenyl}pentyl)-N-[2-(1,1-dioxo-1λ^6,4-thiomorpholin-4-yl)ethyl]-2,3,4,5,6-pentahydroxyhexanamide] as the molecule, how does the EC50 read?
A: < 100 nM

Q: `N[C@@H](CCCCNS(=O)(=O)c1ccc(COC2(c3cnccc3-c3ccccc3OC3CC3)CC2)c(Cl)c1)C(=O)O` [Compound I-484, (S)-2-amino-6-(3-chloro-4-((1-(4-(2-cyclopropoxyphenyl)pyridine-3-yl)cyclopropoxy)methyl)phenylsulfonamido)hexanoic acid] was tested. Which EC50 did it give?
A: < 100 nM

Q: With `CN(CCCCc1cc(Cl)c(COC2(c3cnccc3-c3ccccc3OC3CC3)CC2)cc1Cl)C(=O)[C@@H](O)[C@@H](O)[C@H](O)[C@@H](O)CO` (stereo in doubt) [Compound I-184, (2S,3S,4R,5S)-N-{4-[2,5-dichloro-4-({1-[4-(2-cyclopropoxyphenyl)pyridin-3-yl]cyclopropoxy}methyl)phenyl]butyl}-2,3,4,5,6-pentahydroxy-N-methylhexanamide] as the molecule, how does the EC50 read?
A: < 100 nM

Q: `O=C1NCCN1CCN(CCCCSc1ccc(Cl)c(CNC2(c3cnccc3-c3ccccc3OC3CC3)CC2)c1)C(=O)[C@@H](O)[C@@H](O)[C@H](O)[C@@H](O)CO` [Compound I-624, (2S,3S,4R,5S)-N-[4-({4-chloro-3-[({1-[4-(2-cyclopropoxyphenyl)pyridin-3-yl]cyclopropyl}amino)methyl]phenyl}sulfanyl)butyl]-2,3,4,5,6-pentahydroxy-N-[2-(2-oxoimidazolidin-1-yl)ethyl]hexanamide] was tested. Which EC50 did it give?
A: 126 to 1000 nM
